Patent US8129371B2, “Thienopyrimidine and pyrazolopyrimidine compounds and their use as mTOR kinase and PI3 kinase inhibitors” (Wyeth LLC, priority 2007, dated 2012)
Where two headings read alike, the source gives them in different places.

What was measured:
PI3K [1] = molecular target: T1, PI3K (Homo sapiens, UniProt P48736); assay: Fluorescence polarization assay for PI3K; assay type: biochemical; conditions: read-out: PI3 Kinase γ IC50
T1 construct: PI3 Kinase γ IC50; other: PI3 Kinase γ; other: PI3 Kinase γ isoform, fluorescence polarization
Outline: (§1)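 Fluorescence-polarization competition readout: after 30–60 min of PIP2/ATP turnover in 1% DMSO, a stop mix with GST-GRP (70 nM) and red probe (10 nM) was added.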

PI3K [2] = molecular target: T2, PI3K (Homo sapiens, UniProt P42336); assay: Fluorescence polarization assay for PI3K; assay type: biochemical; conditions: read-out: PI3 Kinase α IC50
T2 construct: PI3 Kinase α IC50; other: PI3 Kinase α; other: PI3 Kinase α isoform, fluorescence polarization
Outline: as §1

Human mTOR (FLAG-TOR) = molecular target: T3, Human mTOR (FLAG-TOR) (Homo sapiens, UniProt P42345); assay: Human mTOR kinase assay with purified enzyme, DELFIA format; assay type: biochemical
T3 construct: FLAG
Outline: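 DELFIA readout: Eu-anti-P(T389)-S6K antibody (40 ng/mL, 1 h) on captured His6-S6K from the stopped reaction. Kinase step used purified FLAG-tagged human mTOR with test compound in HEPES (pH 7.4)/MnCl2/DTT buffer, 2 h at room temperature (linear 1–6 h), terminated by EDTA/EGTA.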

prostate line LNCap = assay: In vitro cell culture growth assay (MTS), LNCap; assay type: cell-based; conditions: Homo sapiens, LNCaP, 72 h, LNCap cells, three days after drug treatment
Outline: (§2)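 The readout was MTS dye metabolism at 490 nm, taken after 3-day drug exposure that began the day after seeding. Growth was expressed as percent of vehicle-treated wells in the same plate.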

breast line MDA468 = assay: In vitro cell culture growth assay (MTS), MDA468; assay type: cell-based; conditions: Homo sapiens, 72 h, MDA468 cells, three days after drug treatment
Outline: as §2

[3] = PI3 Kinase γ isoform, fluorescence polarization
[4] = PI3 Kinase α isoform, fluorescence polarization
[5] = purified human mTOR enzyme, DELFIA format

T2 sequence (P42336 whole entry, canonical isoform): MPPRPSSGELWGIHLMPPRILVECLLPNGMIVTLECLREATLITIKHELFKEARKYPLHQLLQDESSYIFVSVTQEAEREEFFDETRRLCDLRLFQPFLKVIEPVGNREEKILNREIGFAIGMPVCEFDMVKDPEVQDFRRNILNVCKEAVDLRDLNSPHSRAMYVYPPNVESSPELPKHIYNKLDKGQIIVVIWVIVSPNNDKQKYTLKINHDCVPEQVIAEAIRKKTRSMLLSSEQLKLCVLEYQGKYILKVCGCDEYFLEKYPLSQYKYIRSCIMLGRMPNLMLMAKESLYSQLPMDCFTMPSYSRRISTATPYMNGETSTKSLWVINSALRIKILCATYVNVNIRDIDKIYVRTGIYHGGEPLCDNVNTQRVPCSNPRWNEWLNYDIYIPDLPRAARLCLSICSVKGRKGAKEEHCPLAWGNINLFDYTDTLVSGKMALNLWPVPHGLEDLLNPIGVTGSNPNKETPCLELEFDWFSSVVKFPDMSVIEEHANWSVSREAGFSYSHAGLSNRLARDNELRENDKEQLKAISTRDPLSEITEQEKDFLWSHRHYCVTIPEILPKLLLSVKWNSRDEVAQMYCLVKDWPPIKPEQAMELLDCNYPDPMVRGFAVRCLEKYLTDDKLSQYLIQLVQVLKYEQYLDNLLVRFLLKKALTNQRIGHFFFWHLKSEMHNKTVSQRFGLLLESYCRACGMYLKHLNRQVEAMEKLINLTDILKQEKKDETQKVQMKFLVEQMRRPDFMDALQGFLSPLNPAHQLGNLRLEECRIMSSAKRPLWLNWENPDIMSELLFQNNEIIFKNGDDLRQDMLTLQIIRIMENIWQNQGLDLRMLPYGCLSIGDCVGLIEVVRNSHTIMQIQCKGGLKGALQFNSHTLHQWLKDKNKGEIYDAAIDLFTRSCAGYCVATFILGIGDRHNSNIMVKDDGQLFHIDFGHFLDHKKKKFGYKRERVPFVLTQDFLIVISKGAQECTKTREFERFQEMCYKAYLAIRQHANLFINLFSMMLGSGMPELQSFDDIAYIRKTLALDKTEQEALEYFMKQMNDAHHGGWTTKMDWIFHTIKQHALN
T1 sequence (P48736 whole entry, canonical isoform): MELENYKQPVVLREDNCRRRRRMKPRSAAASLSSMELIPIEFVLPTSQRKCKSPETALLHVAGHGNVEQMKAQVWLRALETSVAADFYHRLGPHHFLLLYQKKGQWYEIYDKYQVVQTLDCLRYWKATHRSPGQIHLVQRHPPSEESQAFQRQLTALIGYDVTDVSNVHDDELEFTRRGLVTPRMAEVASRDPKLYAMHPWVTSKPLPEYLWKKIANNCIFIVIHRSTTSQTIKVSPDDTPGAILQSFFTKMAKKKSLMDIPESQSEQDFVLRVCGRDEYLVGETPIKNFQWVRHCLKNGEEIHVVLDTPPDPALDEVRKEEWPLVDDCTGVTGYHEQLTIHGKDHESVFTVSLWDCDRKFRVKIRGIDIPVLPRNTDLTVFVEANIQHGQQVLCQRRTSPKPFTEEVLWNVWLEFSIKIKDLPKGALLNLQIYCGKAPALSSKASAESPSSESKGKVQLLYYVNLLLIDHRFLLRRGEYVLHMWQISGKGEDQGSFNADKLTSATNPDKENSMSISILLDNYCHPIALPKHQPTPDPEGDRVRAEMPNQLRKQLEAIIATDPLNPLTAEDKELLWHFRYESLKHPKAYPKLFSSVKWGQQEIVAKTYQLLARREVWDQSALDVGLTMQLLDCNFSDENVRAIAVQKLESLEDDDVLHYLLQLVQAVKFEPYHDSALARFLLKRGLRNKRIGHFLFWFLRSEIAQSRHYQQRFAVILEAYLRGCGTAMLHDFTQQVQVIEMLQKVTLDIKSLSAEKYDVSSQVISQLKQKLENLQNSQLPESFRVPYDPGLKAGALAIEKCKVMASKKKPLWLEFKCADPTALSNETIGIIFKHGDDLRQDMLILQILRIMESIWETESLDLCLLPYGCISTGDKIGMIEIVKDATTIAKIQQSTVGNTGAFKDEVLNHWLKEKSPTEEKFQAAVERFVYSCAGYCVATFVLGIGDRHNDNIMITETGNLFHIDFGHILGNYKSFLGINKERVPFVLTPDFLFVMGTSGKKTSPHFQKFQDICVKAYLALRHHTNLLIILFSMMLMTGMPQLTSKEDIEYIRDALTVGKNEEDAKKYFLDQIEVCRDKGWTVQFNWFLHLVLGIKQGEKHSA

SMILES	IC50 (PI3K [1]; PI3 Kinase γ) [µM]	IC50 (PI3K [2]; PI3 Kinase α) [nM]	IC50 (Human mTOR (FLAG-TOR)) [nM]	IC50 (prostate line LNCap) [nM]	IC50 (breast line MDA468) [nM]	IC50 (PI3K [1]; [3]) [µM]	IC50 (PI3K [2]; [4]) [nM]	IC50 (Human mTOR (FLAG-TOR); [5]) [nM]
CCn1ncc2c(N3CC4CCC(C3)O4)nc(-c3ccc(NC(=O)NCCCN(C)C)cc3)nc21 [Example 177, 1-[3-(dimethylamino)propyl]-3-{4-[1-ethyl-4-(8-oxa-3-azabicyclo[3.2.1]oct-3-yl)-1H-pyrazolo[3,4-d]pyrimidin-6-yl]phenyl}urea]	> 10	1640	69.5	1200	4500			
CN1CCN(c2ccc(NC(=O)Nc3ccc(-c4nc(N5CC6CCC(C5)O6)c5cnn(C)c5n4)cc3)cn2)CC1 [Example 235, 1-{4-[1-methyl-4-(8-oxa-3-azabicyclo[3.2.1]oct-3-yl)-1H-pyrazolo[3,4-d]pyrimidin-6-yl]phenyl}-3-[6-(4-methylpiperazin-1-yl)pyridin-3-yl]urea]	1.06	187	0.625	3	68			
O=C(Nc1ccncc1)Nc1ccc(-c2nc(N3CC4CCC(C3)O4)c3cnn(C4CCC5(CCCO5)CC4)c3n2)cc1 (single isomer, unassigned) [Example 312, 1-(4-{4-(8-oxa-3-azabicyclo[3.2.1]oct-3-yl)-1-[(5r,8r)-1-oxaspiro[4.5]dec-8-yl]-1H-pyrazolo[3,4-d]pyrimidin-6-yl}phenyl)-3-pyridin-4-ylurea]				1	12	2.22	353	0.203
COC(=O)N1CCC(n2ncc3c(N4CC5CCC(C4)O5)nc(-c4ccc(NC(=O)NCCN(C)C)cc4)nc32)CC1 [Example 169, methyl 4-{6-[4-({[2-(dimethylamino)ethyl]carbamoyl}amino)phenyl]-4-(8-oxa-3-azabicyclo[3.2.1]oct-3-yl)-1H-pyrazolo[3,4-d]pyrimidin-1-yl}piperidine-1-carboxylate]	5.45	422	40.5	500	2200			
O=C(Nc1ccc(-c2nc(N3CC4CCC(C3)O4)c3cnn(C4CCC5(CCCO5)CC4)c3n2)cc1)NC1CC1 (single isomer, unassigned) [Example 316, 1-cyclopropyl-3-(4-{4-(8-oxa-3-azabicyclo[3.2.1]oct-3-yl)-1-[(5r,8r)-1-oxaspiro[4.5]dec-8-yl]-1H-pyrazolo[3,4-d]pyrimidin-6-yl}phenyl)urea]				7	160	> 10	4560	0.495
CN1CCN(c2ccc(NC(=O)Nc3ccc(-c4nc(N5C[C@H]6C[C@@H]5CO6)c5cnn(CC(F)(F)F)c5n4)cc3)cc2)CC1 [Example 345, 1-[4-(4-methylpiperazin-1-yl)phenyl]-3-(4-{4-[(1R,4R)-2-oxa-5-azabicyclo[2.2.1]hept-5-yl]-1-(2,2,2-trifluoroethyl)-1H-pyrazolo[3,4-d]pyrimidin-6-yl}phenyl)urea]				190	450	> 10	1920	38.5
COC(=O)N1CCC(n2ncc3c(N4CC5CCC(C4)O5)nc(-c4ccc(NC(=O)Nc5ccc(CCO)cc5)cc4)nc32)CC1 [Example 165, methyl 4-{6-[4-({[4-(2-hydroxyethyl)phenyl]carbamoyl}amino)phenyl]-4-(8-oxa-3-azabicyclo[3.2.1]oct-3-yl)-1H-pyrazolo[3,4-d]pyrimidin-1-yl}piperidine-1-carboxylate]	2.49	54	0.095	< 1	< 1			
O=C(Nc1ccc(-c2nc(N3C[C@H]4C[C@@H]3CO4)c3cnn(CC(F)(F)F)c3n2)cc1)NC1CC1 [Example 342, 1-cyclopropyl-3-(4-{4-[(1R,4R)-2-oxa-5-azabicyclo[2.2.1]hept-5-yl]-1-(2,2,2-trifluoroethyl)-1H-pyrazolo[3,4-d]pyrimidin-6-yl}phenyl)urea]				670	1000	> 10	9500	53
COC(=O)N1CCC(n2ncc3c(N4CC5CCC(C4)O5)nc(-c4ccc(NC(=O)NCCN5CCN(C)CC5)cc4)nc32)CC1 [Example 170, methyl 4-{6-[4-({[2-(4-methylpiperazin-1-yl)ethyl]carbamoyl}amino)phenyl]-4-(8-oxa-3-azabicyclo[3.2.1]oct-3-yl)-1H-pyrazolo[3,4-d]pyrimidin-1-yl}piperidine-1-carboxylate]	4.42	705	51	1300	6000			
O=C(Nc1ccccc1)Nc1ccc(-c2nc(N3CC4CCC(C3)O4)c3cnn(CCO)c3n2)cc1 [Example 198, 1-{4-[1-(2-hydroxyethyl)-4-(8-oxa-3-azabicyclo[3.2.1]oct-3-yl)-1H-pyrazolo[3,4-d]pyrimidin-6-yl]phenyl}-3-phenylurea]	1.93	68	0.685	28	190			
COCC(COC)n1ncc2c(N3CC4CCC(C3)O4)nc(-c3ccc(NC(=O)OCCO)cc3)nc21 [Example 323, 2-hydroxyethyl (4-{1-[2-methoxy-1-(methoxymethyl)ethyl]-4-(8-oxa-3-azabicyclo[3.2.1]oct-3-yl)-1H-pyrazolo[3,4-d]pyrimidin-6-yl}phenyl)carbamate]				470	2000	> 10	6620	16.5
CC(C)n1ncc2c(N3CC4CCC(C3)O4)nc(-c3ccc(NC(=O)OCCCO)cc3)nc21 [Example 145, 3-hydroxypropyl {4-[1-isopropyl-4-(8-oxa-3-azabicyclo[3.2.1]oct-3-yl)-1H-pyrazolo[3,4-d]pyrimidin-6-yl]phenyl}carbamate]	> 10	3360	2.75	250	12000			
CNC(=O)Nc1ccc(-c2nc(N3CC4CCC(C3)O4)c3cnn(C4COCOC4)c3n2)cc1 [Example 385, 1-{4-[1-(1,3-dioxan-5-yl)-4-(8-oxa-3-azabicyclo[3.2.1]oct-3-yl)-1H-pyrazolo[3,4-d]pyrimidin-6-yl]phenyl}-3-methylurea]				1000	4700	> 10	4030	9.95
CC(C)OC(=O)N1CCC(n2ncc3c(N4CC5CCC(C4)O5)nc(-c4ccc(NC(=O)Nc5ccccc5)cc4)nc32)CC1 [Example 71, isopropyl 4-[4-(8-oxa-3-azabicyclo[3.2.1]oct-3-yl)-6-{4-[(phenylcarbamoyl)amino]phenyl}-1H-pyrazolo[3,4-d]pyrimidin-1-yl]piperidine-1-carboxylate]	4.91	594	0.62	20	170			
COC(=O)Nc1ccc(-c2nc(N3CC4CCC(C3)O4)c3cnn(C4CCC5(CC4)OCCO5)c3n2)cc1 [Example 377, methyl {4-[1-(1,4-dioxaspiro[4.5]dec-8-yl)-4-(8-oxa-3-azabicyclo[3.2.1]oct-3-yl)-1H-pyrazolo[3,4-d]pyrimidin-6-yl]phenyl}carbamate]				140	1200	> 10	7360	2.5
Oc1cccc(-c2nc(N3CC4CCC(C3)O4)c3cnn(-c4ccccc4)c3n2)c1 [Example 102, 3-[4-(8-oxa-3-azabicyclo[3.2.1]oct-3-yl)-1-phenyl-1H-pyrazolo[3,4-d]pyrimidin-6-yl]phenol]	7.83	1170	16	1300	5000			
CC(C)OC(=O)N1CCC(n2ncc3c(N4CC5CCC(C4)O5)nc(-c4ccc(NC(=O)NC5CC5)cc4)nc32)CC1 [Example 70, isopropyl 4-[6-{4-[(cyclopropylcarbamoyl)amino]phenyl}-4-(8-oxa-3-azabicyclo[3.2.1]oct-3-yl)-1H-pyrazolo[3,4-d]pyrimidin-1-yl]piperidine-1-carboxylate]	9.5	924	0.44	3	140			
CC(C)(C)OC(=O)N1CCC(n2ncc3c(N4CC5CCC(C4)O5)nc(-c4ccc(NC(=O)Nc5ccccc5)cc4)nc32)CC1 [Example 23, tert-butyl 4-[4-(8-oxa-3-azabicyclo[3.2.1]oct-3-yl)-6-{4-[(phenylcarbamoyl)amino]phenyl}-1H-pyrazolo[3,4-d]pyrimidin-1-yl]piperidine-1-carboxylate]	> 10	888	0.7	40	180			
CO[C@H]1CC[C@@H](n2ncc3c(N4CC5CCC(C4)O5)nc(-c4ccc(NC(=O)NC5CC5)cc4)nc32)CC1 (relative stereo) [Example 398, 1-cyclopropyl-3-{4-[1-(cis-4-methoxycyclohexyl)-4-(8-oxa-3-azabicyclo[3.2.1]oct-3-yl)-1H-pyrazolo[3,4-d]pyrimidin-6-yl]phenyl}urea]				1	20	5.65	1150	0.52
